Test results as given in PMC5484532 (Biochimie, 2017).

Molecular target: Leishmania donovani tyrosyl-tRNA synthetase (LdTyrRS) (Leishmania donovani, UniProt A0A3Q8ID88)
Test: X-ray co-crystal structure at […] Å
Format: biochemical

IC50: 0.69 nM
Structure (SMILES): Nc1ncnc2c1ncn2[C@@H]1O[C@H](COS(=O)(=O)NC(=O)[C@@H](N)Cc2ccc(O)cc2)[C@@H](O)[C@H]1O [TyrSA, 5'-O-[N-(L-tyrosyl)sulfamoyl]adenosine]
